The record followed here is US10961215B2, “N-aryl and N-heteroaryl piperidine derivatives as liver X receptor beta agonists, compositions, and their use” (Merck Sharp & Dohme Corp., priority 2016, dated 2021).

Experiment [1] deals with T1, GST tagged LXRbeta LBD (ligand binding domain) (Homo sapiens, UniProt P55055).
T1 construct: purchased Invitrogen pv4658.pps
T1 sequence (P55055 222-460 limits assumed): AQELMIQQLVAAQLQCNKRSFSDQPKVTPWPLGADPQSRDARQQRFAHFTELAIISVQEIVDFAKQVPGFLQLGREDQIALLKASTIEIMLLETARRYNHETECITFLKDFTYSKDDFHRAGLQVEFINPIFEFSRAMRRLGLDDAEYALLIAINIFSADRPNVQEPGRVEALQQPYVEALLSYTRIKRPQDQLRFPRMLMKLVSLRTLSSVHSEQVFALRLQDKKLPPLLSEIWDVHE
The experiment in a line: LanthaScreen TR-FRET Liver X Receptor Coactivator Assay, LXR beta-LBD (co-activator recruitment; IP and % Emax relative to T0901317). As to conditions: for EC50: Inflection Point of co-activator recruitment, LXR beta-LBD, TR-FRET; for Emax: efficacy at max dose in relation to reference T0901317, LXR beta-LBD, read-out: LXR beta actiivty at max dose (%). It counts as biochemical. The procedure, abridged:
(§1)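 Potency as inflection point and efficacy as Emax come from compound-driven coactivator peptide recruitment, scaled to T0901317, using a terbium/fluorescein TR-FRET format after room-temperature incubation.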

For experiment [2], the target named is T2, GST tagged LXRalpha LBD (ligand binding domain) (Homo sapiens, UniProt Q13133).
T2 construct: purchased Invitrogen pv4655
T2 sequence (Q13133 209-447 limits assumed): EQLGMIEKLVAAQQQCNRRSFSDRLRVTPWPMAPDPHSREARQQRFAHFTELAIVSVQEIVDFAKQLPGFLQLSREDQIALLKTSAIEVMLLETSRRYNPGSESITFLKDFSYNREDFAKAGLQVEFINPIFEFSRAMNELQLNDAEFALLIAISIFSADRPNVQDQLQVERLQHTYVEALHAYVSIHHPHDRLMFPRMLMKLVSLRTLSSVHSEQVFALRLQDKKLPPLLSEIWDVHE
The experiment in a line: LanthaScreen TR-FRET Liver X Receptor Coactivator Assay, LXR alpha-LBD (co-activator recruitment; IP and % Emax relative to T0901317). The format is biochemical. As to conditions: for EC50 / LXR alpha IP (nM): Inflection Point of co-activator recruitment, LXR alpha-LBD, TR-FRET; for Emax: efficacy at max dose in relation to reference T0901317, LXR alpha-LBD, read-out: LXR alpha actiivty at max dose (%). The procedure, abridged:
as §1
(TR-FRET usually uses a lanthanide donor and a delayed reading to cut background.)

Usually EC50 stands for the concentration that produces a half-maximal response. The low end stands for higher potency in that assay, the high end for lower potency in that assay.

Each structure is given as a SMILES string.

As to `CN(C)C(=O)c1ccc(N2CCC(CCCNC(=O)C(O)(c3ccccc3)C(F)(F)C(F)(F)F)CC2)cc1Cl` (stereo not drawn) [Example 5-3, 2-chloro-N,N-dimethyl-4-(4-(3-(3,3,4,4,4-pentafluoro-2-hydroxy-2-phenyl-butanamido)propyl)piperidin-1-yl)benzamide], the EC50 amounted to 0.38 µM in experiment [1] and 1.67 µM in experiment [2]. Further, the Emax in experiment [1] is 118%; in experiment [2] it was 27%.

Take `COc1cccc([C@@](O)(C(=O)N(C)CC2CC(C3CCN(c4ccc(C(=O)N(C)C)c(Cl)n4)CC3)C2)C(F)(F)F)c1` (stereo partly drawn) [Example 16-1, (R)-2-chloro-N,N-dimethyl-6-(4-(3-((3,3,3-trifluoro-2-hydroxy-2-(3-methoxyphenyl)-N-methylpropanamido)methyl)cyclobutyl)piperidin-1-yl)nicotinamide]: in experiment [1], a half-maximal response (EC50) required 0.047 µM and the Emax was 64%. In experiment [2], the midpoint of the response, the EC50, lay at 1.4 µM and the Emax came to 36%.

As to `COc1cccc([C@](O)(C(=O)N(C)CCCC2CCN(c3ccc(C(=O)N(C)C)c(Cl)n3)CC2)C(F)(F)F)c1` [Example 1-27, (S)-2-chloro-N,N-dimethyl-6-(4-(3-(3,3,3-trifluoro-2-hydroxy-2-(3-methoxyphenyl)-N-methylpropanamido)propyl)piperidin-1-yl)nicotinamide], in experiment [1], the EC50 amounted to 0.603 µM and the Emax was determined as 53%. For the same compound, in experiment [2], the “LXR alpha IP (nM)” value is listed as “No IP” and the Emax came to 3%.

Regarding `CN(C)C(=O)c1ccc(N2CCC(CCCNC(=O)[C@@](O)(c3cccc(O)c3)C(F)(F)F)CC2)nc1Cl` [Example 5-21, (S)-2-chloro-N,N-dimethyl-6-(4-(3-(3,3,3-trifluoro-2-hydroxy-2-(3-hydroxyphenyl)propanamido)propyl)piperidin-1-yl)nicotinamide], in experiment [1], it took 0.314 µM to reach a half-maximal effect (EC50) and the Emax is 91%. In experiment [2], the half-maximal effective concentration (EC50) was 8.72 µM and the Emax came to 36%.

For the compound `COc1cccc([C@@](O)(C(=O)N(C)CC[C@H]2CC23CCN(c2ccc(C(=O)NC(C)C)c(Cl)c2)CC3)C(F)(F)F)c1` [Example 7-10, 2-chloro-N-isopropyl-4-((R)-1-(2-((R)-3,3,3-trifluoro-2-hydroxy-2-(3-methoxyphenyl)-N-methylpropanamido)ethyl)-6-azaspiro[2.5]octan-6-yl)benzamide], in experiment [1], it took 0.1 µM to reach a half-maximal effect (EC50) and the Emax came to 58%. Further, in experiment [2], the midpoint of the response, the EC50, lay at 1.06 µM and the Emax turned out to be 35%.

Turning to `COc1cccc([C@@](O)(C(=O)N(C)CC(F)CC2CCN(c3ccc(C(=O)N(C)C)c(Cl)n3)CC2)C(F)(F)F)c1` (stereo partly drawn) [Example 3-3, 2-chloro-6-(4-(2-fluoro-3-((R)-3,3,3-trifluoro-2-hydroxy-2-(3-methoxyphenyl)-N-methylpropanamido)propyl)piperidin-1-yl)-N,N-dimethylnicotinamide], in experiment [1], the half-maximal effective concentration (EC50) came out at 0.373 µM and the Emax stood at 49%. Further, in experiment [2], the “LXR alpha IP (nM)” value is listed as “No IP” and the Emax came to 6%.

Turning to `COc1ccccc1[C@]1(C(=O)N(C)CCCC2CCN(c3ccc(C(=O)N(C)C)c(Cl)n3)CC2)CCCO1` [Example 1-59, (S)-2-chloro-6-(4-(3-(2-(2-methoxyphenyl)-N-methyltetrahydrofuran-2-carboxamido)propyl)piperidin-1-yl)-N,N-dimethylnicotinamide], the EC50 stood at 0.118 µM in experiment [1] and 2.86 µM in experiment [2]. Also, the Emax in experiment [1] stood at 80%; in experiment [2] it was 24%.

With `CN(C)C(=O)c1ccc(N2CCC(CCCNC(=O)[C@](O)(c3cccc(C4CC4)c3)C(F)(F)F)CC2)nc1Cl` [Example 5-14, (R)-2-chloro-6-(4-(3-(2-(3-cyclopropylphenyl)-3,3,3-trifluoro-2-hydroxy-propanamido)propyl)piperidin-1-yl)-N,N-dimethylnicotinamide], in experiment [1], the midpoint of the response, the EC50, lay at 0.207 µM and the Emax worked out at 44%. Besides, in experiment [2], the “LXR alpha IP (nM)” value is listed as “No IP” and the Emax came out at 0%.

Regarding `COc1cccc([C@@](O)(C(=O)N(C)CCCC2CCN(c3ccc(C(=O)N(C)C)c(OC)n3)CC2)C(F)(F)F)c1` [Example 2-18, (R)-2-methoxy-N,N-dimethyl-6-(4-(3-(3,3,3-trifluoro-2-hydroxy-2-(3-methoxyphenyl)-N-methylpropanamido)propyl)piperidin-1-yl)nicotinamide], in experiment [1], the half-maximal effective concentration (EC50) was found to be 0.523 µM and the Emax worked out at 47%. In addition, in experiment [2], the “LXR alpha IP (nM)” value is “No IP” and the Emax came to 0%.

For `CN(C)C(=O)c1ccc(N2CCC(CCCN(C)C(=O)[C@@](O)(c3ccccc3)C3CC3)CC2)nc1Cl` [Example 1-25, (S)-2-chloro-6-(4-(3-(2-cyclopropyl-2-hydroxy-N-methyl-2-phenylacetamido)propyl)piperidin-1-yl)-N,N-dimethylnicotinamide], in experiment [1], the concentration giving a half-maximal response (EC50) stood at 0.11 µM and the Emax came to 71%. In experiment [2], the 50% effective concentration (EC50) is 3.36 µM and the Emax was 26%.

Regarding `CN(C)C(=O)c1ccc(N2CCC(CCCNC(=O)[C@](O)(c3cccc(OC4CC4)c3)C(F)(F)F)CC2)nc1Cl` [Example 5-11, (R)-2-chloro-6-(4-(3-(2-(3-cyclopropoxyphenyl)-3,3,3-trifluoro-2-hydroxypropanamido)propyl)piperidin-1-yl)-N,N-dimethylnicotinamide], in experiment [1], the EC50 amounted to 0.349 µM and the Emax came to 46%. Moreover, in experiment [2], the “LXR alpha IP (nM)” value is “No IP” and the Emax is -8%.

For `CCOc1cccc([C@@](O)(C(=O)N(C)CCCC2CCN(c3ccc(C(=O)N(C)C)c(Cl)n3)CC2)C(F)(F)F)c1` [Example 1-36, (R)-2-chloro-6-(4-(3-(2-(3-ethoxyphenyl)-3,3,3-trifluoro-2-hydroxy-N-methylpropanamido)propyl)piperidin-1-yl)-N,N-dimethylnicotinamide], in experiment [1], a half-maximal effect (EC50) was put at 0.078 µM and the Emax was determined as 63%. Besides, in experiment [2], the “LXR alpha IP (nM)” value is given as “No IP” and the Emax came out at 0%.

On to `CN(C)C(=O)c1ccc(N2CCC(CCCN(C)C(=O)[C@@](C)(O)c3ccccc3)CC2)nc1Cl` [Example 1-21, (S)-2-chloro-6-(4-(3-(2-hydroxy-N-methyl-2-phenylpropanamido)propyl)piperidin-1-yl)-N,N-dimethylnicotinamide], for which, in experiment [1], a half-maximal effect (EC50) was put at 0.33 µM and the Emax was found to be 60%. Also, in experiment [2], the “LXR alpha IP (nM)” value is “No IP” and the Emax worked out at 9%.

Regarding `CN(C)C(=O)c1ccc(N2CCC(C)(CCCN(C)C(=O)[C@]3(c4ccccc4)CCCO3)CC2)nc1Cl` [Example 9-3, (R)-2-chloro-N,N-dimethyl-6-(4-methyl-4-(3-(N-methyl-2-phenyltetrahydrofuran-2-carboxamido)propyl)piperidin-1-yl)nicotinamide], in experiment [1], the EC50 is 0.014 µM and the Emax is 94%. Further, in experiment [2], a half-maximal effect (EC50) was put at 0.198 µM and the Emax is 31%.

As for `COc1cccc([C@@](O)(C(=O)N(C)CCCC2CCN(c3ccc(C(=O)N(C)C)c(C)n3)CC2)C(F)(F)F)c1` [Example 2-20, (R)-N,N,2-trimethyl-6-(4-(3-(3,3,3-trifluoro-2-hydroxy-2-(3-methoxyphenyl)-N-methylpropanamido)propyl)piperidin-1-yl)nicotinamide], in experiment [1], a half-maximal response (EC50) required 0.271 µM and the Emax came out at 64%. Also, in experiment [2], the “LXR alpha IP (nM)” value was “No IP” and the Emax was 0%.

`CN(C)C(=O)c1ccc(N2CCC(F)(CCCN(C)C(=O)[C@](O)(c3ccccc3)C(F)(F)F)CC2)nc1Cl` [Example 12-4, (R)-2-chloro-6-(4-fluoro-4-(3-(3,3,3-trifluoro-2-hydroxy-N-methyl-2-phenylpropanamido)propyl)piperidin-1-yl)-N,N-dimethylnicotinamide]: in experiment [1], the 50% effective concentration (EC50) is 0.266 µM and the Emax is 46%. Also, in experiment [2], the “LXR alpha IP (nM)” value is reported as “No IP” and the Emax was determined as 0%.

On to `COc1cccc([C@@](O)(C(=O)N(C)C[C@H](C)CC2CCN(c3ccc(C(=O)N(C)C)c(Cl)n3)CC2)C(F)(F)F)c1` (single isomer, unassigned) [Example 3-1], for which, in experiment [1], the concentration for a half-maximal effect (EC50) stood at 0.025 µM and the Emax was found to be 70%. Also, in experiment [2], the “LXR alpha IP (nM)” value is on record as “No IP” and the Emax came out at 16%.

As for `COc1cccc([C@@](O)(C(=O)N(C)CCCC2CCN(c3ccc(C(=O)NC4CC4)c(Cl)n3)CC2)C(F)(F)F)c1` [Example 2-2, (R)-2-chloro-N-cyclopropyl-6-(4-(3-(3,3,3-trifluoro-2-hydroxy-2-(3-methoxyphenyl)-N-methylpropanamido)propyl)piperidin-1-yl)nicotinamide], in experiment [1], the concentration giving a half-maximal response (EC50) worked out at 0.688 µM and the Emax worked out at 44%. Further, in experiment [2], the “LXR alpha IP (nM)” value is recorded as “No IP” and the Emax came out at 7%.
